Here are results for two compounds from US12624057B2, “Bisphosphonate quinolone conjugates and uses thereof” (BIOVINC, LLC, priority 2016, dated 2026).

Series [1] is described as follows: Hydroxyapatite (HA) binding assay, spectroscopic analysis of supernatant. Type of series: physicochemical. Conditions: supernatant at 0 hr versus 24 hrs, TSB medium. Here is the method: Solutions containing BP-ciprofloxacin and HA spherules were introduced to wells of 24-well plate. […] Plates were shaken automatically in the spectrometer prior to assessment. Next, plates were left for 24 h/37° C./shaking. After 24 hours, absorbance was measured once again. To assess the relative concentration of the conjugate at 0 hr and 24 hrs, values of absorbance taken in the beginning and at the end of experiment were compared.
Spectroscopic analysis of 6 and 11 in Tryptic Soy Broth (TSB) microbiological media with the addition of HA spherules: Various conjugate concentrations were introduced to HA powder (spherules) suspended in TSB microbiological medium. Solutions containing BP-ciprofloxacin an HA spherules were introduced to wells of a 24-well plate. […] Plates were shaken automatically in the spectrometer prior to assessment. Next, plates were left for 24 hrs/37° C./shaking. After 24 hrs, absorbance was measured once again. To assess the relative concentration of the conjugate at 0 hr and 24 hrs, values of absorbance taken in the beginning and at the end of experiment were compared. The excitation slit, emission slit, integration time, and increment were optimized based on the concentration of samples.

Series [2] concerns planktonic S. aureus strain ATCC-6538. As to the kind of experiment: Antimicrobial susceptibility testing in acidic versus basic/physiological pH. It counts as cell-based, Staphylococcus aureus. Conditions: acidic (pH 5) versus basic/physiological (pH 7.4). Here is the method: Antimicrobial susceptibility testing of BP-ciprofloxacin against planktonic cultures of S. aureus strain ATCC-6538 in acidic versus basic pH: This experimental setting was performed in the same manner as described previously for disc diffusion testing, but microbiological media was adjusted to pH 7.4 and pH 5 using KOH or HCL solution and measured using a universal pH-indicator (Merck, Poland).
Antimicrobial susceptibility testing of 6 against planktonic cultures of S. aureus strain ATCC-6538 in acidic versus physiological pH: This experimental setting was performed in the same manner as described previously for disc diffusion testing, but microbiological media was adjusted to pH 7.4 and pH 5 using KOH or HCL solution and measured using a universal pH-indicator (Merck, Poland).

Series [3] has as its system biofilms of Aggregatibacter actinomycetemcomitans grown on HA. Nature of the series: Aa biofilms grown on HA. Type of series: cell-based.
The subject of series [4] is S. aureus 6538. Nature of the series: Preventative assay, HA spherules pretreated then inoculated with S. aureus. It counts as cell-based, Staphylococcus aureus. As for the experimental part:
Preventative ability of BP-ciprofloxacin conjugate to inhibit S. aureus 6538 adherence to HA spherules: Various BP-ciprofloxacin concentrations were introduced to HA powder (spherules) suspended in TSB microbiological medium. Solutions containing conjugate and HA spherules were introduced to wells of 24-well plates. Final concentrations of powder were 10 mg/1 mL, while final concentrations of the conjugate were 0.12-250 mg/L. Suspensions were left for 24 h/37° C./shaking. After 24 h, suspensions were removed from the wells and impulse-centrifuged to precipitate HA powder. Next, supernatant was very gently discarded and a fresh 1 mL of S. aureus of density 10^5 cfu/mL was introduced to the HA spherules. Subsequently, this solution was shaken, absorbance was measured using 580 nm wavelength and left for 24 h/37° C./shaking. After incubation absorbance was measured again and values from 0 hr and 24 hrs were compared to assess reduction of bacterial growth with regard to control sample one (bacterial suspension but no spherules) and control sample two (bacterial suspension+spherules but with no conjugate added). Additionally, solutions were impulse-centrifuged, supernatant was gently discarded, while bacteria-containing HA spherules were culture plated as before and quantitatively assessed. […]

The test system of series [5] is Aggregatibacter actinomycetemcomitans (Aa; wild-type rough strain D7S-1; serotype a). Nature of the series: Disc diffusion inhibition zone assay on Aa. Type of series: cell-based. From the text: Since this BP-ciprofloxacin conjugate is novel and has not been tested in vivo, we performed an initial safety and efficacy study in an animal model of peri-implant osteomyelitis. This model is a unique in-house jawbone peri-implant osteomyelitis model that was developed specifically for translational value to study biofilm-mediated disease and host response in vivo (Freire, et al, Development of animal model for Aggregatibacter actinomycetemcomitans biofilm-mediated oral osteolytic infection: a preliminary study. J Periodontol 2011; 82:778-89). […] After biofilms are established on the implants in vitro, they are surgically transferred to the jawbone of each rat. Animals are anesthetized, the cheeks are retracted and a transmucosal osteotomy is performed so implants can be manually inserted into the osteotomy and secured. Two biofilm-inoculated implants are placed in each rat (n=12 rats and 24 implants) in the palatal bone bilaterally.
Next, inhibition zones were recorded using a ruler.
After biofilms were established on the implants in vitro, they were surgically transferred to the jawbone of each rat. For surgery, animals were anesthetized with 4% isoflurane inhalant initially followed by intraperitoneal injection of ketamine (80-90 mg/kg) plus xylazine (5-10 mg/kg). Then local anesthesia was given via infiltration injection of bupivicaine 0.25% at the surgical site. […]
On the technique in general: A growth-free zone around the sample is the usual read-out of agar diffusion tests.

“Also recorded” adds a separate entry of the source.

With `O=C(O)c1cn(C2CC2)c2cc(N3CCN(C(=O)Oc4ccc(CC(P(=O)(O)O)P(=O)(O)O)cc4)CC3)c(F)cc2c1=O` [Compound 6, 1-cyclopropyl-7-(4-((4-(2,2-diphosphonoethyl)phenoxy)carbonyl)piperazin-1-yl)-6-fluoro-4-oxo-1,4-dihydroquinoline-3-carboxylic acid], the “adsorption to hydroxyapatite (HA)” value is “significant adsorption and retention of the conjugate by HA; also recorded: effective adsorption and retention to HA spherules” in series [1]; “taken up by the HA beads; also recorded: confirms adsorption of conjugate to HA” in series [1] (listed as BCC); “significant adsorption and retention of the conjugate by HA” in series [1] (listed as BP-ciprofloxacin). Also, the results for the “effect of pH on antimicrobial activity / concentration to reach MIC50” value in series [2] and in series [2] (listed as BP-ciprofloxacin) were “half the conjugate concentration; also recorded: slightly improved profile in acidic conditions” and “half the conjugate concentration; also recorded: improved bactericidal profile in acidic”, respectively. Besides, the “activity against Aa biofilm on HA (in words)” value in series [3] is “effective antimicrobial activity”. Further, in series [3] (strain D7S-5 grown on HA), the “concentration with effective antimicrobial profile” value is > 15 µg/mL.
On to `O=C(O)c1cn(C2CC2)c2cc(N3CCNCC3)c(F)cc2c1=O` [ciprofloxacin, reference compound], for which the “concentration giving the only significant reduction” value in series [4] turned out to be 400 µg/mL. The “disc diffusion inhibition zone diameters” value in series [5] is recorded as > 40 mm.
